The source made the active and inactive calls.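 Rule for the calls: active = IC50 of 20 µM or lower; inactive = the rest.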

The subject of the test is HL-1 cardiomyocytes, H2O2 injury, ATP luminescence, 2 h. Kind of test: protection of HL-1 cardiomyocytes from peroxide injury, dose response, cell-based, ATP luminescence (AID 602215).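 Note: potency is for protection so actives raise ATP signal against peroxide damage.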

As a reminder, the IC50 is the midpoint of a concentration-inhibition curve. With `NC(=O)COc1ccc2oc(=O)cc(-c3cc4ccccc4o3)c2c1`, the IC50 was 18.3 µM.
On to `COc1cc(/C=C(\C#N)c2nc3ccc(C)cc3[nH]2)c([N+](=O)[O-])cc1OC`, for which the IC50 is > 79 µM (inactive).
The figure for `COc1ccc(CCNc2nc(-c3cccnc3)nc3ccccc23)cc1OC` is > 79 µM (inactive); for `CCCn1nc(C(=O)Nc2nc(-c3ccccn3)cs2)c2ccccc2c1=O` it is 7.02 µM.
On to `O=C(N/N=C/c1ccccn1)c1cc(-c2cccc3ccccc23)n[nH]1`, for which the IC50 was > 79 µM (inactive).
On to `CC1Nc2ncnc(N3CCN(c4ccccc4)CC3)c2N(Cc2ccc(Cl)cc2)C1=O` (stereo unspecified), for which the IC50 was > 79 µM (inactive).
For the molecule `O=C(NCC(=O)N(Cc1ccccc1)C(C(=O)NC1CCCCC1)c1ccco1)c1ccco1` (stereo unspecified), the IC50 is > 79 µM (inactive).
In the case of `CCOc1ccc(C(C(=O)NCC2CCCO2)N(C(=O)c2snc(C(N)=O)c2N)c2ccccc2F)cc1` (stereo unspecified), the IC50 is 10.4 µM.
As for `COc1ccc(-c2cnc3c(NC=O)cc(-c4cccc(NS(C)(=O)=O)c4)cn23)cc1OC`, the IC50 is 6.15 µM.
With `CCOc1cc(/C=C/c2ccc3cccc([N+](=O)[O-])c3n2)ccc1OCC(=O)N(C)C` the figure was > 79 µM (inactive); with `O=C(CN(c1ccc2c(c1)OCCO2)S(=O)(=O)c1ccccc1)Nc1ccc2c(c1)OCO2`, > 79 µM (inactive); with `CCN(CC(=O)Nc1ccc(OC)cc1)C(=O)c1cc(-c2cccs2)nn1-c1ccccc1`, > 79 µM (inactive).
The figure for `CC(C)(C)NC(=O)COC(=O)c1c2c(nc3ccccc13)CCC2` is 49.1 µM (inactive); for `CCOc1ccccc1NC(=O)c1oc2ccccc2c1NC(=O)C1CCCO1` (stereo unspecified) it is > 79 µM (inactive); for `COc1cccc(-c2cnc3c(NC=O)cc(-c4cc(C)c(O)c(C)c4)cn23)c1` it is 4.55 µM.
With `COc1ccc(-c2cc(C(=O)Nc3ccccc3N3CCOCC3)c3ccccc3n2)cc1OC` the figure was 4.35 µM; with `C=CC[C@@H](CC(=O)NCCO)C(=O)NC[C@H](OC(=O)[C@@H](CC=C)Cc1ccc(F)cc1)c1ccccc1`, > 79 µM (inactive).
Regarding `C[C@H](NC(=O)c1nc[nH]c1C(=O)NCC(=O)OCc1ccccc1)c1ccccc1`, the IC50 was > 79 µM (inactive).
With `Cc1cc(C)c2c(N)c(C(=O)N/N=C/c3cccnc3)sc2n1` the figure was > 79 µM (inactive); with `O=C(Nc1cc(S(=O)(=O)N2CCOCC2)ccc1N1CCCCC1)c1cc(-c2ccccn2)nc2ccccc12`, 3.6 µM; with `N#C/C(=C\Nc1ccc2c(c1)OCCO2)c1nc2ccccc2[nH]1`, > 79 µM (inactive).
`CN(C(=O)c1sc2nc(N3CCOCC3)c3c(c2c1N)CCCC3)c1ccccc1`: the IC50 is 8.63 µM.
With `COc1cc(-c2cc(NC=O)c3ncc(-c4ccc(C(C)=O)cc4)n3c2)cc(OC)c1OC` the figure was 4.1 µM.
With `COC(=O)c1ccc(N)c(N=CC2=C(O)CC(C)(C)CC2=O)c1` the figure was 41.4 µM (inactive); with `COc1ccc(CCNC(=O)C(=O)NCC2CCCN2S(=O)(=O)c2ccccc2)cc1OC` (stereo unspecified), > 79 µM (inactive).
With `CN(C)S(=O)(=O)c1ccc2[nH]cc(/C=C/c3nc4ccccc4c(=O)n3-c3ccccc3)c2c1`, the IC50 was > 79 µM (inactive).
The figure for `CCOc1ccc(C(C(=O)NC2CCCC2)N(C(=O)c2snc(C(N)=O)c2N)c2cccc(O)c2)cc1` (stereo unspecified) is 4.32 µM; for `COc1ccc(NC(=O)c2cc(-c3ccccn3)nc3ccccc23)cc1S(=O)(=O)N(C)C` it is > 79 µM (inactive).
Take `CCOc1ccc2nc(NC(=O)CN3CCC(n4nnc5cc(F)ccc54)CC3)sc2c1`: the IC50 was > 79 µM (inactive).
With `COc1cc(NC(=O)c2cc3nc(-c4ccccc4)cc(-c4ccccc4)n3n2)cc(OC)c1OC` the figure was 8.71 µM.
The figure for `COc1ccc(C(C(=O)NCc2ccccc2)N(Cc2ccco2)C(=O)c2snc(C(N)=O)c2N)cc1` (stereo unspecified) is 44.1 µM (inactive).
Turning to `O=C(NCC(=O)N(Cc1cccs1)C(C(=O)NC1CCCCC1)c1ccco1)c1ccco1` (stereo unspecified), the IC50 was > 79 µM (inactive).
The figure for `COc1ccc(-c2cc(NC(C)=O)c3ncc(-c4cccc(C(C)=O)c4)n3c2)cc1OC` is > 79 µM (inactive); for `COc1cc(/C=C/c2nnc3c4ccccc4ncn23)cc(OC)c1OC` it is 13.8 µM.
Turning to `COc1ccc(COc2cc(-c3cccc(OC)c3)nc3ccc(NC(=O)c4cccnc4)cc23)cc1`, the IC50 is 4.53 µM.
Consider `CCCNC(=O)c1ccc(N2CCC3(CC2)CC(c2ccccc2)=NO3)c(NC(=O)c2ccco2)c1`, for which the IC50 was 3.22 µM.
With `CS(=O)(=O)c1ccc(-c2cnc3c(NC=O)cc(-c4ccsc4)cn23)cc1` the figure was 8.73 µM.
For `CCOc1ncccc1C(=O)Nc1cccc(-c2nc3cccnc3s2)c1`, the IC50 was > 79 µM (inactive).
Take `COc1cccc(-c2cnc3c(NC=O)cc(-c4cccc(NC(C)=O)c4)cn23)c1`: the IC50 is > 79 µM (inactive).
Regarding `Brc1cc2c(cc1/C=N/Nc1nc(N3CCCC3)nc(N3CCOCC3)n1)OCO2`, the IC50 is 10.9 µM.
The figure for `COc1ccc(-c2cc(C(=O)N(C)Cc3ccc(OC)c(OC)c3OC)c3ccccc3n2)cc1OC` is 11.6 µM.

These data come from PubChem BioAssay AID602215 (Sanford-Burnham Center for Chemical Genomics, 2012).
